From patent US20240199605A1, “SMALL MOLECULAR INHIBITORS OF NF-kB INDUCING KINASE” (Janssen Pharmaceutica NV, priority 2019, published 2024)

Legend:
[1] = target: recombinant human NF-kappaB-inducing kinase (NIK/MAP3K14) (Homo sapiens (Human), UniProt Q99558); experiment: Inhibition of auto-phosphorylation of recombinant human NIK/MAP3K14 (AlphaScreen); type: biochemical; conditions: NIK auto-phosphorylation, 5 μM ATP, 1 nM NIK, 2 h at 25° C.; average of values
Summary of the method: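 GST-tagged NIK (1 nM) auto-phosphorylated with 5 μM ATP for 2 h at 25° C. in 50 mM Tris pH 7.5, 5 mM MgCl2, 1 mM EGTA, 1 mM DTT, 0.1 mM Na3VO4, 0.01% Tween 20 (0.7% DMSO). Detected by AlphaScreen via anti-phospho-IKK Ser176/180 antibody; IC50 from sigmoidal fit of % inhibition versus log concentration.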

[2] = tested on: p-IKKα levels in L363 (NIK translocated multiple myeloma) cells; experiment: Effect of compounds on p-IKKα levels in L363 cells (AlphaLISA SureFire Ultra); type: cell-based, human; conditions: Homo sapiens, L-363, 6 h, BAFF stimulated, MG132, 6 h, average of values, read-out: Assay 2 IC50
Summary of the method: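 Inhibition of p-IKKα (Ser176/180) read by AlphaLISA after 6 h, 37 °C compound exposure (11-point 1:3 series, 0.3% DMSO) of L363 cells pre-incubated overnight ± 250 ng/ml BAFF and plated ± BAFF ± 10 μM MG132. Normalised to BAFF/MG132/DMSO and unstimulated controls; IC50 by sigmoidal fitting, duplicates.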

Sequence of recombinant human NF-kappaB-inducing kinase (NIK/MAP3K14) (Q99558 whole entry): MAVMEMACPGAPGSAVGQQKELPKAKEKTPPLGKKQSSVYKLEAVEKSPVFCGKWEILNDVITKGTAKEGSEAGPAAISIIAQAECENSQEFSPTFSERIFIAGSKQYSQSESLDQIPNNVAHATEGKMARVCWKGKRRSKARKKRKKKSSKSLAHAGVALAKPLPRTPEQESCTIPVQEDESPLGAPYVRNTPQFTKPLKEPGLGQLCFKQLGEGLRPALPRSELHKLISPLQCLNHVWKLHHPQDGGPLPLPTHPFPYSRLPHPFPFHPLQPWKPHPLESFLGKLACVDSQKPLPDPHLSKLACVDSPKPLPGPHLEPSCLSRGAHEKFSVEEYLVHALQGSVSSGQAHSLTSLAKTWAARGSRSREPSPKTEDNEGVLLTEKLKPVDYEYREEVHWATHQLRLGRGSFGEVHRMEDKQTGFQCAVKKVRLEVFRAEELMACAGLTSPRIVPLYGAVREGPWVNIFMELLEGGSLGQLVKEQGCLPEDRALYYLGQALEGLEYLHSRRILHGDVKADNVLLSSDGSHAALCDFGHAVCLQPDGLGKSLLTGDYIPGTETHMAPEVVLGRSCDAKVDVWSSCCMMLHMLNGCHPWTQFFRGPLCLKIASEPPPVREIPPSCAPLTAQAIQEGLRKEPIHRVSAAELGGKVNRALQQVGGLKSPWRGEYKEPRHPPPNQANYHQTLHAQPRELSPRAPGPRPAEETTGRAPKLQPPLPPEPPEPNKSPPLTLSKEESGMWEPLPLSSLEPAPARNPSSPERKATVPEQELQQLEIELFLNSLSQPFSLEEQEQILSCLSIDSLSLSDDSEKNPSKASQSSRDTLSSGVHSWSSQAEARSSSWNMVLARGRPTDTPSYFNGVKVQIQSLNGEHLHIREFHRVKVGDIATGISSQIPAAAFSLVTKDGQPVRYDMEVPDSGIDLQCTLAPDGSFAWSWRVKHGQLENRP

Structure (SMILES)	IC50 [1] [nM]	IC50 [2] [nM]
C[C@@](O)(C#Cc1cccc(-c2ccc3ncnc(N)c3n2)c1)c1nccs1 [Example 93, (R)-4-(3-(4-Aminopyrido[3,2-d]pyrimidin-6-yl)phenyl)-2-(thiazol-2-yl)but-3-yn-2-ol]	≤ 0.5	6.5
C[C@@](O)(C#Cc1cccc(-c2cnc3ncnc(N)c3c2)c1)c1nccs1 [Example 108, (R)-4-(3-(4-Aminopyrido[2,3-d]pyrimidin-6-yl)phenyl)-2-(thiazol-2-yl)but-3-yn-2-ol]	7.6	> 5000
CN1CC[C@@](O)(C#Cc2cccc(-c3ccc4ncnc(N5CC(Cl)C5)c4n3)c2)C1=O [Example 244, (R)-3-((3-(4-(3-Chloroazetidin-1-yl)pyrido[3,2-d]pyrimidin-6-yl)phenyl)ethynyl)-3-hydroxy-1-methylpyrrolidin-2-one]	4.9	240
CN1CC[C@@](O)(C#Cc2cccc(N3CCc4ccnc(N)c4C3)c2)C1=O [Example 20, (R)-3-((3-(8-Amino-3,4-dihydro-2,7-naphthyridin-2(1H)-yl)phenyl)ethynyl)-3-hydroxy-1-methylpyrrolidin-2-one]	1.2	55
Cc1ccc(C#C[C@]2(O)CCc3cccnc32)cc1-c1ncc2ccnc(N)c2n1 [Example 75, (R)-7-((3-(8-Aminopyrido[3,4-d]pyrimidin-2-yl)-4-methylphenyl)ethynyl)-6,7-dihydro-5H-cyclopenta[b]pyridin-7-ol]	1.3	84
Cc1cc(-c2cccc(C#C[C@]3(O)CCN(C)C3=O)c2)nc2c(C)ncnc12 [Example 250, (R)-3-((3-(4,8-Dimethylpyrido[3,2-d]pyrimidin-6-yl)phenyl)ethynyl)-3-hydroxy-1-methylpyrrolidin-2-one]	7.9	130
[2H]c1nc(N)c2nc(-c3cccc(C#C[C@]4(O)C(=O)N(C)[C@H]5C[C@H]54)c3)ccc2n1 [Example 275, (1S,4S,5R)-4-((3-(4-Aminopyrido[3,2-d]pyrimidin-6-yl-2-d)phenyl)ethynyl)-4-hydroxy-2-methyl-2-azabicyclo[3.1.0]hexan-3-one]	300	> 5000
Cc1cc(C#C[C@]2(O)CCN(C)C2=O)cc(-c2ncc3ccnc(N)c3n2)c1 [Example 42, (R)-3-((3-(8-Aminopyrido[3,4-d]pyrimidin-2-yl)-5-methylphenyl)ethynyl)-3-hydroxy-1-methylpyrrolidin-2-one]	1.3	29
[2H]C([2H])([2H])N1CC[C@@](O)(C#Cc2cccc(-c3nc(C)c4ccnc(N)c4n3)c2)C1=O [Example 83, (R)-3-((3-(8-Amino-4-methylpyrido[3,4-d]pyrimidin-2-yl)phenyl)ethynyl)-3-hydroxy-1-(methyl-da)pyrrolidin-2-one]	≤ 0.5	3.2
Cc1cc([C@](C)(O)C#Cc2cccc(-c3ccc4ncnc(N)c4c3)c2)no1 [Example 104, (R)-4-[3-(4-Aminoquinazolin-6-yl)phenyl]-2-(5-methylisoxazol-3-yl)but-3-yn-2-ol]	1.3	280
Cc1cnc(N)c2nc(-c3cccc(C#C[C@]4(O)CCn5ccnc54)c3)ncc12 [Example 86, (R)-7-[2-[3-(8-Amino-5-methyl-pyrido[3,4-d]pyrimidin-2-yl)phenyl]ethynyl]-5,6-dihydropyrrolo[1,2-a]imidazol-7-ol]	≤ 0.5	7.7
CN1CC[C@@](O)(C#Cc2cccc(-c3ccc4[nH]nc(N)c4n3)c2)C1=O [Example 22, (R)-3-[2-[3-(3-Amino-1H-pyrazolo[4,3-b]pyridin-5-yl)phenyl]ethynyl]-3-hydroxy-1-methyl-pyrrolidin-2-one]	4.3	480
Cc1nc(N)c2nc(-c3cccc(C#C[C@]4(O)C[C@@H](C)N(C)C4=O)c3)ccc2n1 [Example 265, (3R,5R)-3-((3-(4-Amino-2-methylpyrido[3,2-d]pyrimidin-6-yl)phenyl)ethynyl)-3-hydroxy-1,5-dimethylpyrrolidin-2-one]	1.9	28
CN1CC[C@@](O)(C#Cc2cccc(-n3cc4c(N)ncnc4n3)c2)C1=O [Example 179, (R)-3-((3-(4-Amino-2H-pyrazolo[3,4-d]pyrimidin-2-yl)phenyl)ethynyl)-3-hydroxy-1-methylpyrrolidin-2-one]	1170	> 5000
Cc1ncc(C#N)c2ccc(-c3cccc(C#C[C@]4(O)CCN(C)C4=O)c3)nc12 [Example 251, (R)-2-(3-((3-Hydroxy-1-methyl-2-oxopyrrolidin-3-yl)ethynyl)phenyl)-8-methyl-1,7-naphthyridine-5-carbonitrile]	86	560
CN1CC[C@@](O)(C#Cc2cccc(-c3cc(C#N)c4ncnc(N)c4c3)c2)C1=O [Example 126, (R)-4-Amino-6-(3-((3-hydroxy-1-methyl-2-oxopyrrolidin-3-yl)ethynyl)phenyl)quinazoline-8-carbonitrile]	0.9	820
